Reference: patent US20240228458A1, “PYRIMIDINE DERIVATIVE HAVING PROTEIN KINASE INHIBITORY ACTIVITY, AND THERAPEUTIC PHARMACEUTICAL COMPOSITION COMPRISING SAME” (THERAPEX CO., LTD., priority 2021, published 2024)

Experiments:
Format in all cases: cell-based
[1] = tested on: Ba/F3 cells expressing L858R/T790M (EGFR-LT); test: Growth inhibition (GI50) of Ba/F3 cells expressing L858R/T790M (EGFR-LT), Celltiter glo; conditions: Mus musculus, BaF3, 72 h
Method in brief: (§1)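 Viable-cell luminescence (CellTiter-Glo) after 72 h compound exposure at 37 °C, 5% CO2 gave GI50 (μM, 50% growth inhibition). Compounds were 4-fold serial dilutions, 10 points, from a 2 mM stock, 0.5% DMSO, added 4 h after plating EGFR-variant Ba/F3 cells at 100,000 cells/ml.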

[2] = tested on: Ba/F3 cells expressing L858R/T790M/C797S (EGFR-LTC); test: Growth inhibition (GI50) of Ba/F3 cells expressing L858R/T790M/C797S (EGFR-LTC), Celltiter glo; conditions: Mus musculus, BaF3, 72 h
Method in brief: as §1

[3] = tested on: Ba/F3 cells expressing del19/T790M (EGFR-DT); test: Growth inhibition (GI50) of Ba/F3 cells expressing del19/T790M (EGFR-DT), Celltiter glo; conditions: Mus musculus, BaF3, 72 h
Method in brief: as §1

[4] = tested on: Ba/F3 cells expressing del19/T790M/C797S (EGFR-DTC); test: Growth inhibition (GI50) of Ba/F3 cells expressing del19/T790M/C797S (EGFR-DTC), Celltiter glo; conditions: Mus musculus, BaF3, 72 h
Method in brief: as §1

[5] = tested on: parental Ba/F3 cell line; test: Growth inhibition (GI50) of the parental Ba/F3 cell line (not introduced with EGFR variants), Celltiter glo; conditions: Mus musculus, BaF3, 72 h, parental Ba/F3 cells
Method in brief: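 Parental Ba/F3 cells (100,000 cells/ml) were treated with 10-point, 4-fold compound dilutions (0.5% DMSO; top stock 2 mM) for 72 h at 37 °C, 5% CO2. Viability was read by CellTiter-Glo; GI50 is the concentration (μM) giving 50% growth inhibition.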

[6] = tested on: Ba/F3 cells expressing EGFR-wt; test: Growth inhibition (GI50) of Ba/F3 cells expressing EGFR-wt, Celltiter glo; conditions: Mus musculus, BaF3, 72 h
Method in brief: as §1

GI50 [1] | GI50 [2] | GI50 [3] | GI50 [4] | GI50 [6] | Structure (SMILES) | GI50 [5]
25 to 100 nM | 25 to 100 nM | 25 to 100 nM | 25 to 100 nM | 100 to 500 nM | COc1cc(N2CCC(N3CCCN(C)CC3)CC2)c(C)cc1Nc1ncc(Cl)c(Nc2cc3c(cc2N(C)S(C)(=O)=O)CCO3)n1 [Example 265, N-(6-((5-chloro-2-((2-methoxy-5-methyl-4-(4-(4-methyl-1,4-diazepan-1-yl)piperidin-1-yl)phenyl)amino)pyrimidin-4-yl)amino)-2,3-dihydrobenzofuran-5-yl)-N-methylmethanesulfonamide] | 500 to 2000 nM
25 to 100 nM | 100 to 500 nM | 25 to 100 nM | 500 to 2000 nM | 500 to 2000 nM | CN1CCN(C2CCN(c3ncc(Nc4ncc(Br)c(Nc5cc6c(cc5NS(C)(=O)=O)CCO6)n4)cc3F)CC2)CC1 [Example 239, N-(6-((5-bromo-2-((5-fluoro-6-(4-(4-methylpiperazin-1-yl)piperidin-1-yl)pyridin-3-yl)amino)pyrimidin-4-yl)amino)-2,3-dihydrobenzofuran-5-yl)methanesulfonamide] | 2000 to 10000 nM
500 to 2000 nM | 500 to 2000 nM | 100 to 500 nM | 500 to 2000 nM | 500 to 2000 nM | CNS(=O)(=O)c1ccccc1Nc1nc(Nc2ccc(N3CCC(N(C)C)C3)nc2OC)ncc1Cl (stereo not drawn) [Example 57, 2-((5-chloro-2-((6-(3-(dimethylamino)pyrrolidin-1-yl)-2-methoxypyridin-3-yl)amino)pyrimidin-4-yl)amino)-N-methylbenzenesulfonamide] | 500 to 2000 nM
